Source: publication PMC9743095 (Journal of Medicinal Chemistry, 2022)

Experiments:
[1] = cited from earlier work
MOLT-4 = experiment: cells; type: cell-based; settings: Homo sapiens, MOLT-4, 72 h; for CC50: read-out: LC50; for Emax: read-out: MI%
Experimental: (§1) The assay was contracted and carried out by WuXi AppTec (Shanghai) Co., Ltd. The tumor cell lines CCRF-CEM, HL-60, KG-1, MOLT-4, K562, MV4-11, THP-1, HEL92.1.7, NCI-H929, RPMI-8226, Jurkat, Z138, RL, HS445, HepG2, MCF-7, Bx-PC-3, HT29, MIA PaCa-2, and SW620 were seeded at cell densities of […] 10^3 cells/well in a 96-well plate the day before drug incubation. Then, the plates were incubated for 72 h with the different concentrations of compound to be tested. After the incubation period, 50 μL of MTS was added and the tumor cells were incubated for 4 h at 37 °C. The data were read and collected by a Spectra Max 340 absorbance microplate reader. The compounds were tested in duplicate with nine serial concentrations (3.16-fold titrations with 198 μM as the highest concentration), and the data were analyzed by XLfit software.

K562 = experiment: cells; type: cell-based; settings: Homo sapiens, K562, 72 h; for CC50: read-out: LC50; for Emax: read-out: MI%
Experimental: as §1

KG-1 = experiment: cells; type: cell-based; settings: Homo sapiens, KG-1, 72 h, read-out: LC50
Experimental: as §1

CCRF-CEM = experiment: cells; type: cell-based; settings: Homo sapiens, 72 h; for CC50: read-out: LC50; for Emax: read-out: MI%
Experimental: as §1

HL-60 = experiment: cells; type: cell-based; settings: Homo sapiens, HL-60, 72 h; for CC50: read-out: LC50; for Emax: read-out: MI%
Experimental: as §1

HepG2 = experiment: cells; type: cell-based; settings: Homo sapiens, HepG2, 72 h; for CC50: read-out: LC50; for Emax: read-out: MI%
Experimental: as §1

MCF-7 = experiment: cells; type: cell-based; settings: Homo sapiens, MCF7, 72 h; for CC50: read-out: LC50; for Emax: read-out: MI%
Experimental: as §1

| SMILES | Sp isomer fold more active than the Rp isomer [1] [fold] | CC50 (MOLT-4) [µM] | Emax (MOLT-4) [%] | CC50 (K562) [µM] | Emax (K562) [%] | CC50 (KG-1) [µM] | CC50 (CCRF-CEM) [µM] | Emax (CCRF-CEM) [%] | CC50 (HL-60) [µM] | Emax (HL-60) [%] | CC50 (HepG2) [µM] | Emax (HepG2) [%] | CC50 (MCF-7) [µM] | Emax (MCF-7) [%] |
| --- | --- | --- | --- | --- | --- | --- | --- | --- | --- | --- | --- | --- | --- | --- |
| CC(C)OC(=O)[C@H](C)N[P@](=O)(OC[C@H]1O[C@@H](n2ccc(=O)[nH]c2=O)[C@](C)(F)[C@@H]1O)Oc1ccccc1 [sofosbuvir] | 18 |  |  |  |  |  |  |  |  |  |  |  |  |  |
| C[C@H](NP(=O)(Oc1cccc2ccccc12)O[C@@H]1C[C@@H](COP(=O)(N[C@H](C)C(=O)OCc2ccccc2)Oc2cccc3ccccc23)O[C@H]1n1cnc2c(N)ncnc21)C(=O)OCc1ccccc1 (stereo partly shown) [Compound 5b] |  | 14.8 | 100 | 25.4 | 87 | 66.3 | 27.1 | 99 | 78.6 | 99 | 30.2 | 90 | 5.05 | 99 |
| CC(C)OC(=O)[C@H](C)N[P@](=O)(CO[C@H](C)Cn1cnc2c(N)ncnc21)Oc1ccccc1 [TAF, Tenofovir Alafenamide] | 10 |  |  |  |  |  |  |  |  |  |  |  |  |  |
| C[C@H](NP(=O)(Oc1ccccc1)O[C@@H]1C[C@@H](CO)O[C@H]1n1cnc2c(N)ncnc21)C(=O)OCc1ccccc1 (stereo partly shown) [Compound 6a] |  | 18.6 | 100 | 26.9 | 89 | 79.4 | 17.6 | 99 | 31.1 | 80 | 83.1 | 55 | 5.06 | 94 |
